The source of these data is patent US9157053B1, “Laundry washing machine deodorizer” (priority 2009, dated 2015).

The test system of assay [1] is odor-causing biological growth (mold, mildew) in the machine. The assay can be described thus: early odor-control trials in the TROMM laundry washer, before the standardized procedure. The settings on record: TROMM WM2688WM washer; Example 1: one ounce per load, 2.5 cu ft laundry, warm water. An excerpt:
A TROMM Model # WM2688WM laundry washer made by LG Electronics Inc. was purchased. After a few months the odor problem was discovered. […] Applicant started to investigate why a new, expensive washer had this kind of problem. […] These are organic based materials. They provide a growth medium for mold, mildew and other biological growth. The odor is generated by this biofilm. The biofilm returns between each of the treatments.
Since the primary odor was thought to come from mildew, a well known material, 20 MULE TEAM BORAX® detergent was used as a detergent. The boron contained in the detergent is a toxic material that controls mold and fungus. […] The commercially available detergent contained a small amount of boron along with various other chemicals necessary for laundry cleaning.
One ounce of the borax was added to the machine for each load.
The laundry volume was standardized at a full basket of 2.5 Cu Ft.
All wash cycles were run with warm water.

For a further assay, the system named is biofilm. The assay can be described thus: standardized test procedure for objectionable odors (whiff test, Pass/Fail) in a High Efficiency laundry washing machine. The settings on record: one ounce of composition per load, 14 days idle, TROMM WM2688WM HE washer, Tide Liquid HE detergent, 2.5 cu ft cotton laundry. An excerpt: The residue is a matrix of soap, detergent, cotton or wool fibers, and any other organic matter that was introduced by the dirty laundry. This provides a wide array of substances that can support biological growth. The exact mixture is an uncontrolled variable but it considered to be bounded by the use of one machine in one location. Experimental control also involves a standardized volume of the laundry load and the exclusive use of cotton items in the laundry washed. The detergent portion of the matrix was standardized by using only TIDE® Liquid HE Detergent.
A standardized test procedure was developed for a High Efficiency (HE) laundry washing machine. […]
The test procedure also involved a second growth period after the wash cycle where the damp laundry is allowed to sit idle in the laundry washing machine with the door closed. […] Given the above assumptions, it was reasonable to assume that the performance of the composition would be effectively quantified Personal experience with odor problem:
Experimentation with idle periods ranging from twenty four hours to three weeks verified that the intensity of the odor problem was a function of the biofilm growth in the machine during the idle period of the washing schedule. […] Therefore, it was determined that the criteria for effectiveness would be focused on the first load of the week. […]

On to `O=C([O-])O.[Na+]` [baking soda], for which the odor control entry in assay [1] is “did not work well”.

For the compound “sodium borate pentahydrate [5 mol concentration borax]”, in the assay on biofilm, the “first load odor control / first load performance” value is listed as “did increase the control of first load odors, but it was still erratic”.
